Test results as given in patent US12691112B2, “FGFR tyrosine kinase inhibitors for the treatment of urothelial carcinoma” (Janssen Pharmaceutica NV, priority 2019, dated 2026).

Key:
[1] = 10 patients, nine with disease progression on prior immunotherapy; cited from earlier work
urothelial cancer = assay: Best response to prior chemotherapy before study enrolment, per investigator assessment; type: in vivo, human; conditions: first-line chemotherapy before study enrolment; across all regimens
Text: Across all regimens, 184 patients had received first-line platinum-based chemotherapy, 83 had received second-line chemotherapy, and 24 had received third-line chemotherapy before study enrolment.

Compound | patients who responded [1] | best ORR per investigator assessment (urothelial cancer)
COCc1c(-c2cc3cc(C)cc(OC)c3s2)c2c(N)ncnn2c1CN1CCNC(=O)C1 [rogaratinib] | 30% | –
gemcitabine plus cisplatin | – | 35%
